For one test, the target named is Cholinesterase (Equus caballus, UniProt P81908).
The next test deals with Acetylcholinesterase (Electrophorus electricus, UniProt O42275).

Structures are written as SMILES.

As a reminder, the IC50 is the midpoint of a concentration-inhibition curve. A low value points to inhibition by little substance.

Acetylcholinesterase, sequence (O42275 whole entry): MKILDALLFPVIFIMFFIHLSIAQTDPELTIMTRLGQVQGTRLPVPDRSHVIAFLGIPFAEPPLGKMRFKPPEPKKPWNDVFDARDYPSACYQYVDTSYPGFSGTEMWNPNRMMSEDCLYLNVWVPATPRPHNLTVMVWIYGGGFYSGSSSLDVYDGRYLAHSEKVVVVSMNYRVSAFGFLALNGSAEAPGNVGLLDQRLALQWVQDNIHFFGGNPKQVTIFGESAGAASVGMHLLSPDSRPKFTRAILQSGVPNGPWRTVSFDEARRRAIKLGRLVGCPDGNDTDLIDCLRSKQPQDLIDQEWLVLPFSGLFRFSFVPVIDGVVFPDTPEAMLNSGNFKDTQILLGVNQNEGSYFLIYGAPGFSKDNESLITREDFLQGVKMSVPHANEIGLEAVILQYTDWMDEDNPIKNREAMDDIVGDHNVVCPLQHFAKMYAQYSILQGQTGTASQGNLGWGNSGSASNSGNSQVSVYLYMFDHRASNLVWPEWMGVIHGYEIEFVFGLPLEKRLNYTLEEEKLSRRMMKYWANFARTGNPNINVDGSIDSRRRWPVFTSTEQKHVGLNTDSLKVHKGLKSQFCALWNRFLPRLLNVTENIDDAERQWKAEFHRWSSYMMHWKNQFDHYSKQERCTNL
Cholinesterase, sequence (P81908 whole entry): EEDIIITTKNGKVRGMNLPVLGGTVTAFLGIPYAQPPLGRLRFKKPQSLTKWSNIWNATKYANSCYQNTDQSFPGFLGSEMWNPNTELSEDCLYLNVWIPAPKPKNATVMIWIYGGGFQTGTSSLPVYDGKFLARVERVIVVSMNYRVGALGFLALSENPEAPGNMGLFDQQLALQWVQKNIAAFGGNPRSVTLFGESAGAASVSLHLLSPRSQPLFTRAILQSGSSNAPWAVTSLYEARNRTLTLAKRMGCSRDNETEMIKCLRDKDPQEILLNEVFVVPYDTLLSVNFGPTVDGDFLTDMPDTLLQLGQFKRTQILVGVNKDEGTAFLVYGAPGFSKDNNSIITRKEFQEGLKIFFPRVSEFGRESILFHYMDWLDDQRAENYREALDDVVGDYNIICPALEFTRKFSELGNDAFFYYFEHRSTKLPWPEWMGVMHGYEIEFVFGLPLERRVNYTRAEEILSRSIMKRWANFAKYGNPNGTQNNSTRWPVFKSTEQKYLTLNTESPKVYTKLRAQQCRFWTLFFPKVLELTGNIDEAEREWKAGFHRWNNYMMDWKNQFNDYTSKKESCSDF
Description for Acetylcholinesterase: Inhibition of electric eel AChE

For the molecule `c1ccc2c(NCCCCCCCNc3c4c(nc5ccccc35)CCCC4)c3c(nc2c1)CCCC3`, the IC50 against Cholinesterase is 0.0105 µM; on Acetylcholinesterase it was 0.0018 µM.

With `c1ccc2c(CNc3ccnc(N4CCOCC4)n3)cccc2c1`, the IC50 was found to be 28 µM on Cholinesterase and 15.7 µM at Acetylcholinesterase.

`c1ccc2c(CNc3ccnc(N4CCSCC4)n3)cccc2c1` displayed an IC50 on Acetylcholinesterase of 15.5 µM.

`c1ccc(CNc2ccnc(N3CCCC3)n2)cc1`: the half-inhibitory concentration (IC50) amounted to 26.4 µM against Cholinesterase and 9.8 µM against Acetylcholinesterase.

On Acetylcholinesterase, `c1ccc(CNc2ccnc(N3CCOCC3)n2)cc1` showed an IC50 of 0.5 µM.

As to `CC1CCN(c2nccc(NCc3ccccc3)n2)CC1`, the half-maximal inhibitory concentration (IC50) against Cholinesterase stood at 2.9 µM; against Acetylcholinesterase, 0.39 µM.

Regarding `CN1CCN(c2nccc(NCc3ccccc3)n2)CC1`, the results for the IC50 at Cholinesterase and against Acetylcholinesterase were greater than 100 µM and 0.56 µM, respectively.

For `CN1CCN(c2nccc(NCc3cccc4ccccc34)n2)CC1`, the IC50 against Cholinesterase came to 2.6 µM; against Acetylcholinesterase, 17.6 µM.

`c1ccc2c(CNc3ccnc(N4CCCC4)n3)cccc2c1`: the results for the half-maximal inhibitory concentration (IC50) at Cholinesterase and at Acetylcholinesterase were 8.9 µM and 5.8 µM, respectively.

Take `c1ccc(CNc2ccnc(N3CCSCC3)n2)cc1`: the IC50 on Cholinesterase stood at 2.3 µM; against Acetylcholinesterase it was 0.33 µM.

On to `CN1CCN(c2nccc(NCCc3ccccc3)n2)CC1`, for which the values for the IC50 on Cholinesterase and against Acetylcholinesterase were greater than 100 µM and 14.4 µM, respectively.

Take `c1ccc(CCNc2ccnc(N3CCOCC3)n2)cc1`: the IC50 was greater than 100 µM against Cholinesterase and 4.8 µM at Acetylcholinesterase.

Take `c1ccc(CCNc2ccnc(N3CCSCC3)n2)cc1`: the IC50 against Cholinesterase is greater than 100 µM; against Acetylcholinesterase, 25 µM.

For the molecule `CC1CCN(c2nccc(NCCc3ccccc3)n2)CC1`, the values for the IC50 against Cholinesterase and on Acetylcholinesterase were 17.7 µM and 7.9 µM, respectively.

Source of the values: ChEMBL document CHEMBL1155545, “Design, synthesis and evaluation of 2,4-disubstituted pyrimidines as cholinesterase inhibitors” (Bioorg Med Chem Lett, 2010).
